Results taken from article PMC7760137, “Solid Lipid Nanoparticles as Formulative Strategy to Increase Oral Permeation of a Molecule Active in Multidrug-Resistant Tuberculosis Management” (Pharmaceutics, 2020).
Values after ≈ are worked out from the molar mass of the structure shown.

Experiments:
M. tuberculosis H37Rv = experiment: Drug sensitivity testing, Bactec MGIT 960; type: cell-based, Mycobacterium tuberculosis; parameters: key: sensitive (S); resistant (R); details: strain H37Rv
[1] = tested on: M. tuberculosis strain 952; experiment: Drug sensitivity testing, Bactec MGIT 960; type: cell-based, Mycobacterium tuberculosis; parameters: key: sensitive (S); resistant (R)
[2] = tested on: M. tuberculosis strain 1097; experiment: Drug sensitivity testing, Bactec MGIT 960; type: cell-based, Mycobacterium tuberculosis; parameters: key: sensitive (S); resistant (R)
[3] = tested on: M. tuberculosis strain 1670; experiment: Drug sensitivity testing, Bactec MGIT 960; type: cell-based, Mycobacterium tuberculosis; parameters: key: sensitive (S); resistant (R)
[4] = tested on: M. tuberculosis strain 512; experiment: Drug sensitivity testing, Bactec MGIT 960; type: cell-based, Mycobacterium tuberculosis; parameters: key: sensitive (S); resistant (R)
[5] = tested on: M. tuberculosis strain 600; experiment: Drug sensitivity testing, Bactec MGIT 960; type: cell-based, Mycobacterium tuberculosis; parameters: key: sensitive (S); resistant (R)
[6] = tested on: M. tuberculosis strain 368; experiment: Drug sensitivity testing, Bactec MGIT 960; type: cell-based, Mycobacterium tuberculosis; parameters: key: sensitive (S); resistant (R)
[7] = tested on: M. tuberculosis strain 1762; experiment: Drug sensitivity testing, Bactec MGIT 960; type: cell-based, Mycobacterium tuberculosis; parameters: key: sensitive (S); resistant (R)
[8] = tested on: M. tuberculosis strain 571; experiment: Drug sensitivity testing, Bactec MGIT 960; type: cell-based, Mycobacterium tuberculosis; parameters: key: sensitive (S); resistant (R)
[9] = tested on: M. tuberculosis strain 1120; experiment: Drug sensitivity testing, Bactec MGIT 960; type: cell-based, Mycobacterium tuberculosis; parameters: key: sensitive (S); resistant (R)
[10] = tested on: M. tuberculosis H37Rv strain (ATCC 27294); experiment: Resazurin microtiter assay (REMA); type: cell-based; details: Mycobacterium tuberculosis, drug alone
Procedure: REMA assays were performed in sterile 96-well microtiter plates with round-bottom wells, sealed in a plastic bag. Mycobacteria were cultured in Middlebrook 7H11 medium supplemented with OADC. […] Final bacterial inocula were approximately 1–5 × 10^5 CFU/mL. Plates were incubated at 37 °C and were read after 72 h. Once the final visual reading was performed, 30 μL of 0.02% resazurin was added to each well before reincubation overnight. Bacterial growth was measured by the change in color from blue (oxidized state) to pink (reduced), and minimal inhibitory concentration (MIC) was defined as the lowest drug concentration that prevented the color change and, therefore, the mycobacteria growth.

[11] = tested on: M. tuberculosis clinical isolate 952; experiment: microbe, parasite or virus in culture; type: cell-based; details: Mycobacterium tuberculosis
[12] = tested on: M. tuberculosis clinical isolate 1097; experiment: microbe, parasite or virus in culture; type: cell-based; details: Mycobacterium tuberculosis
[13] = tested on: M. tuberculosis clinical isolate 1670; experiment: microbe, parasite or virus in culture; type: cell-based; details: Mycobacterium tuberculosis
[14] = tested on: M. tuberculosis clinical isolate 512; experiment: microbe, parasite or virus in culture; type: cell-based; details: Mycobacterium tuberculosis
[15] = tested on: M. tuberculosis clinical isolate 600; experiment: microbe, parasite or virus in culture; type: cell-based; details: Mycobacterium tuberculosis
[16] = tested on: M. tuberculosis clinical isolate 368; experiment: microbe, parasite or virus in culture; type: cell-based; details: Mycobacterium tuberculosis
[17] = tested on: M. tuberculosis clinical isolate 1762; experiment: microbe, parasite or virus in culture; type: cell-based; details: Mycobacterium tuberculosis
[18] = tested on: M. tuberculosis clinical isolate 571; experiment: microbe, parasite or virus in culture; type: cell-based; details: Mycobacterium tuberculosis
[19] = tested on: M. tuberculosis clinical isolate 1120; experiment: microbe, parasite or virus in culture; type: cell-based; details: Mycobacterium tuberculosis

Structure (SMILES) | Drug sensitivity test result (M. tuberculosis H37Rv) | Drug sensitivity test result [1] | Drug sensitivity test result [2] | Drug sensitivity test result [3] | Drug sensitivity test result [4] | Drug sensitivity test result [5] | Drug sensitivity test result [6] | Drug sensitivity test result [7] | Drug sensitivity test result [8] | Drug sensitivity test result [9] | MIC [10] [µg/mL] | MIC [11] [µg/mL] | MIC [12] [µg/mL] | MIC [13] [µg/mL] | MIC [14] [µg/mL] | MIC [15] [µg/mL] | MIC [16] [µg/mL] | MIC [17] [µg/mL] | MIC [18] [µg/mL] | MIC [19] [µg/mL]
CC[C@@H](CO)NCCN[C@@H](CC)CO [EMB, ethambutol] | S | S | R | S | R | R | R | R | R | R | 1 (≈ 4.89 µM) | 1 (≈ 4.89 µM) | 32 (≈ 157 µM) | 1 (≈ 4.89 µM) | 4 (≈ 19.6 µM) | > 16 | > 16 | 4 (≈ 19.6 µM) | > 16 | > 64
NNC(=O)c1ccncc1 [INH, isoniazid] | S | S | R | S | R | R | R | S | R | R | 0.125 (≈ 0.911 µM) | 0.062 (≈ 0.452 µM) | 2 (≈ 14.6 µM) | 0.125 (≈ 0.911 µM) | 1 (≈ 7.29 µM) | > 1 | < 1 | 0.062 (≈ 0.452 µM) | > 1 | > 16
CO[C@H]1/C=C/O[C@@]2(C)Oc3c(C)c(O)c4c(O)c(c(/C=N/N5CCN(C)CC5)c(O)c4c3C2=O)NC(=O)/C(C)=C\C=C\[C@H](C)[C@H](O)[C@@H](C)[C@@H](O)[C@@H](C)[C@H](OC(C)=O)[C@@H]1C [RIF, rifampicin] | S | R | S | S | R | R | S | R | R | R | 0.25 (≈ 0.304 µM) | 0.5 (≈ 0.608 µM) | 0.25 (≈ 0.304 µM) | 0.125 (≈ 0.152 µM) | > 2 | > 2 | 0.25 (≈ 0.304 µM) | > 2 | > 2 | 8 (≈ 9.72 µM)
[H]/N=C(/N)N[C@H]1[C@H](O)[C@@H](O)[C@H](O[C@@H]2O[C@@H](C)[C@](O)(C=O)[C@H]2O[C@@H]2O[C@@H](CO)[C@H](O)[C@@H](O)[C@@H]2NC)[C@@H](N/C(N)=N\[H])[C@@H]1O [SM, streptomycin] | S | S | R | S | S | R | S | S | R | R | 0.125 (≈ 0.215 µM) | 0.062 (≈ 0.107 µM) | 4 (≈ 6.88 µM) | 0.125 (≈ 0.215 µM) | 0.5 (≈ 0.86 µM) | > 4 | 0.5 (≈ 0.86 µM) | 0.125 (≈ 0.215 µM) | 0.25 (≈ 0.43 µM) | 4 (≈ 6.88 µM)
